Source: patent US4313943A, “7-Chloro-2,3-dihydro-5-phenyl-1-propargyl-1H-1,4-benzodiazepine-2-one, and a pharmaceutical composition thereof” (priority 1972, dated 1982)
“And” between values parts separate entries of the source, which are not always exact repeats. Equal values may be shown once.

Tests used:
[1] = Modifications in the electrocorticogram (ECoG) of unanesthetized animals, R index; format: in vivo
Description: Twenty-four hours prior to the test, the surface of a test animal's skull was exposed and stainless steel electrodes were screwed through the lamina externa to make contact with the dura matter in the frontal, parietal and occipital regions, on both sides of the median and transverse sutures. The ECoG was recorded on a REEGA MINI HUIT (Alvar Electronic) encephalograph with a transverse circuit, with bi-frontal, bi-parietal and bi-occipital leads and a longitudinal circuit, with fronto-pariental and parieto-occipital leads on both left and right. One track was used to record respiration, with leads from two steel needles placed under the shin, on either side of the thorax.
Some test animals were kept in restraint cases placed in a relatively soundproof room and some were left free to move in metal cases measuring 40×50×30 cm, which were also kept in a relatively quiet environment.
The activity of the test compounds studied was judged on the one hand by the pattern of spontaneous electrogenesis, especially by the relative degree to which the three basic rhythms of the ECoG in the animals were represented; the theta rhythm (4-8 c/sec.), predominant and characteristic of the state of wakefulness in the posterior regions; bursts of rapid spiked waves (alpha rhythm, 9-15 c/sec.) recorded in the course of diffused wakefulness, and slow waves (delta rhythm, 0.5-3 c/sec.) which are absent in a state of wakefulness except in pathological conditions or in the presence of medicinal substances, a rhythm characteristic of slow-wave sleep. The rapid, low-voltage beta rhythm, not very characteristic of the ECoG in the test animals used and primarily superimposed on the other rhythms, was not analyzed.
Possible modifications in cortical reactivity were also investigated, using two types of stimulation, one comprised an auditory stimulus (whistle blasts) and the other a nociceptive stimulus delivered to the cutaneous nerve endings by pinching the dorsal skin with Kocher's clamps.
To the foregoing qualitative analysis, a quantitative analysis concerning the evolution of spontaneous electrogenesis under the influence of test compounds 1 and 4 was added. The activity of the two compounds was judged by variations in an "R" index, defined as the ratio between the theta waking rhythm, slow waves and bursts of rapid spiked waves. Initially, R was evaluated quantitatively on a scale from 0 to 4 and after this initial estimate, variations in the R index were rated on a scale from 0 to 5 as follows:
1. Maintenance of the value calculated in making the reference tracking (basal value) 0 since variation is nil.
2. Reduction in basal values
(a) reduction of basal value by one-half -1.
(b) observed value between 1/2 and 1/5 of basal value -2.
(c) observed value between 1/5 and 1/10 of basal value -3.
(d) observed value between 1/10 and 1/20 of basal value -4.
(e) observed value lower than 1/20 of basal value, reflecting maximum perturbation of spontaneous ECoG and expressing either a pathological condition or a state of slow-wave sleep, with the absence of theta rhythms and the exclusive presence of slow waves and/or bursts of rapid spiked waves -5.
Once the various values were allocated to each animal, the mean of these values were calculated for each experimental period. From these means, calculations were made of the percentages of variation as compared to a theoretical maximum value of -5 for each experimental period. The percentage for each period was calculated every 30 minutes for 7 hours, with a theoretical total of -10 per hour, then between 7 and 48 hours (theoretical total […]) and between the time of administering the test compound and the 48th hour (theoreticaltotal -90). Variations of 10% were not regarded as significant. All dosages were administered intragastrically through the esophageal tube. […]

[2] = Acute toxicity comparison (LD50, Litchfield and Wilcoxan); details: in vivo
Description: Toxicity in test animals to the test compounds in terms of LD50 after oral and intraperitoneal administration was determined according to the procedure of Litchfield and Wilcoxan (1949) and the hypnotic effect on test animals was determined in accordance with the method of Janssen (1959).

[3] = test system: dorsal hippocampus; assay: Hippocampal after-discharge (stimulation of dorsal hippocampus); format: in vivo; details: 7.5 mg/kg intragastric; for Duration of Hippocampal After-Discharge: individual animals
Description: The test animals for this study were also prepared according to the technique described by Monnier and Gangloff (infra B, page 30) and the animals were kept in restraint cages in a relatively soundproof room.
The activity of test compounds 1 and 4 was assessed in identical groups of test animals for each compound, with identical numbers of animals for hippocampal after-discharges and for amygdaloid after-discharges. A dose of 7.5 mg/kg of each test compound was adminstered by the intragastric route. In each animal, after-discharges were triggered every 45 minutes after the administration of a test compound.
The stimulation consisted of a series of waves with a duration of 3 m sec., delivered at a frequency of 40 c/sec., with 5 seconds as the total duration of the stimulation. The shocks were delivered by a Neurovar neurostimulator (Alvar Electronic), coupled to a CRC cathode oscilloscope (type OC 343). Cerebral electric activity was recorded by REEGA MINI HUIT electroencephalograph (Alvar Electronic).

[4] = 7.5 mg/kg intragastric, 2 Hours
[5] = 7.5 mg/kg intragastric, 3 Hours
[6] = 7.5 mg/kg intragastric, 4 Hours
[7] = 7.5 mg/kg intragastric, 5 Hours
[8] = 7.5 mg/kg intragastric, 6 Hours
[9] = 7.5 mg/kg intragastric, 7 Hours
[10] = 7.5 mg/kg intragastric, 48 Hours (7-48 h)
[11] = 7.5 mg/kg intragastric, After 48 Hours (0-48 h total)
[12] = 15.0 mg/kg intragastric, 1 Hour
[13] = 15.0 mg/kg intragastric, 2 Hours
[14] = 15.0 mg/kg intragastric, 3 Hours
[15] = 15.0 mg/kg intragastric, 4 Hours
[16] = 15.0 mg/kg intragastric, 5 Hours
[17] = 15.0 mg/kg intragastric, 6 Hours
[18] = 15.0 mg/kg intragastric, 7 Hours
[19] = 15.0 mg/kg intragastric, 48 Hours (7-48 h)
[20] = 15.0 mg/kg intragastric, After 48 Hours (0-48 h total)
[21] = 30.0 mg/kg intragastric, 1 Hour
[22] = 30.0 mg/kg intragastric, 2 Hours
[23] = 30.0 mg/kg intragastric, 3 Hours
[24] = 30.0 mg/kg intragastric, 4 Hours
[25] = 30.0 mg/kg intragastric, 5 Hours
[26] = 30.0 mg/kg intragastric, 6 Hours
[27] = 30.0 mg/kg intragastric, 7 Hours
[28] = 30.0 mg/kg intragastric, 48 Hours (7-48 h)
[29] = 30.0 mg/kg intragastric, After 48 Hours (0-48 h total)

For C#CCN1C(=O)CN=C(c2ccccc2)c2cc(Cl)ccc21 [Compound 1, 7-chloro-2,3-dihydro-5-phenyl-1-propargyl-1H-1,4-benzodiazepin-2-one], the “duration of effect on spontaneous electrogenesis” value ([1]; 1.5 mg/kg) was 2 h, the “latency of the effects” value ([1]; 1.5 mg/kg) was 21 min and the “average duration of effect on spontaneous electrogenesis” value ([1]; 3.75 mg/kg) was 4 h. The “R index variation, Mean” value ([1]; 7.5 mg/kg intragastric, 1 Hour) was -7.5, the “R index, % of Variation” value ([1]; 7.5 mg/kg intragastric, 1 Hour) was -50.0% and the “R index variation, Mean” value [1, 4] was -6.0. The “R index, % of Variation” value [1, 4] was -60.0%, the “R index variation, Mean” value [1, 5] was -4.5 and the “R index, % of Variation” value [1, 5] was -45.0%. For the same molecule, the “R index variation, Mean” value [1, 6] was -4.0, the “R index, % of Variation” value [1, 6] was -40.0% and the “R index variation, Mean” value [1, 7] was -3.0. The “R index, % of Variation” value [1, 7] was -30.0%, the “R index variation, Mean” value [1, 8] was -2.0 and the “R index, % of Variation” value [1, 8] was -20.0%. The “R index variation, Mean” value [1, 9] was -1.5, the “R index, % of Variation” value [1, 9] was -15.0% and the “R index variation, Mean” value [1, 10] was -0.5. For the same molecule, the “R index, % of Variation” value [1, 10] was -3.3%, the “R index variation, Mean” value [1, 11] was -29.0 and the “R index, % of Variation” value [1, 11] was -32.2%. The “R index variation, Mean” value [1, 12] was -11.5, the “R index, % of Variation” value [1, 12] was -76.7% and the “R index variation, Mean” value [1, 13] was -7.0. The “R index, % of Variation” value [1, 13] was -70.0%, the “R index variation, Mean” value [1, 14] was -5.5 and the “R index, % of Variation” value [1, 14] was -55.0%. The “R index variation, Mean” value [1, 15] was -5.5, the “R index, % of Variation” value [1, 15] was -55.0% and the “R index variation, Mean” value [1, 16] was -4.0. For the same molecule, the “R index, % of Variation” value [1, 16] was -40.0%, the “R index variation, Mean” value [1, 17] was -2.0 and the “R index, % of Variation” value [1, 17] was -20.0%. The “R index variation, Mean” value [1, 18] was -2.0, the “R index, % of Variation” value [1, 18] was -20.0% and the “R index variation, Mean” value [1, 19] was “+1.5”. The “R index, % of Variation” value [1, 19] was “+10.0%”, the “R index variation, Mean” value [1, 20] was -36.0 and the “R index, % of Variation” value [1, 20] was -40.0%. For the same molecule, the “Cortical reactivity induced by exteroceptive stimulation” value ([1]; 30 mg/kg) was “remained unchanged”, the “R index variation, Mean” value [1, 21] was -8.66 and the “R index, % of Variation” value [1, 21] was -57.7%. The “R index variation, Mean” value [1, 22] was -6.99, the “R index, % of Variation” value [1, 22] was -69.9% and the “R index variation, Mean” value [1, 23] was -6.99. For the same molecule, the “R index, % of Variation” value [1, 23] was -69.9%, the “R index variation, Mean” value [1, 24] was -6.33 and the “R index, % of Variation” value [1, 24] was -63.3%. For the same molecule, the “R index variation, Mean” value [1, 25] was -4.33, the “R index, % of Variation” value [1, 25] was -43.3% and the “R index variation, Mean” value [1, 26] was -1.32. The “R index, % of Variation” value [1, 26] was -13.2%, the “R index variation, Mean” value [1, 27] was -0.99 and the “R index, % of Variation” value [1, 27] was -9.9%. For the same molecule, the “R index variation, Mean” value [1, 28] was -1.66, the “R index, % of Variation” value [1, 28] was -11.1% and the “R index variation, Mean” value [1, 29] was -37.3. The “R index, % of Variation” value [1, 29] was -41.4%, the “duration of effects on spontaneous electrogenesis” value ([1]; 7.5, 15 and 30 mg/kg) was “at least 5 hours” and the “oral toxicity compared with Compounds 3 or 4” value ([2]; po) was “lower oral toxicity”. The LD50 ([2]; Table 11, oral, species not given) was 5820 mg/kg, the “effect on duration of hippocampal after-discharge” value [3] was “markedly increased the duration of after-discharges” and the “Duration of Hippocampal After-Discharge” value ([3]; 45 Mins.) was 25 s and 14 s and 23 s and 18 s. The “Duration of Hippocampal After-Discharge” value ([3]; 90 Mins.) was 27 s and 21 s and 25 s and 11 s and 23 s, the “Duration of Hippocampal After-Discharge” value ([3]; 135 Mins.) was 27 s and 16 s and 26 s and 19 s and 25 s and the “Duration of Hippocampal After-Discharge” value ([3]; 180 Mins.) was 25 s and 23 s and 24 s and 27 s. The “Duration of Hippocampal After-Discharge” value ([3]; 225 Mins.) was 29 s and 26 s and 25 s and 23 s and 34 s and the “Duration of Hippocampal After-Discharge” value ([3]; 270 Mins.) was 23 s and 26 s and 21 s and 40 s.
